Results: EP1296974B1, “2-CYANOPYRROLIDINE DERIVATIVES AND THEIR USE AS MEDICAMENTS” (NOVARTIS AG, priority 2000, dated 2001)
Where a name gives a salt, the structure may show the parent alone.

Tests used:
DPP-IV = molecular target: T1, DPP-IV (Homo sapiens, UniProt P27487); test: Caco-2 DPP-IV Assay (inhibition of DPP-IV activity from human colonic carcinoma cell extracts); type: biochemical; conditions: Caco-2 cell extract, substrate H-Alanine-Proline-pNA, 8-point dose-response curves
T1 construct: The assay is conducted by adding 20 µg solubilized Caco-2 protein; host or cells: Caco-2 (differentiated), NP-40 solubilized cell extract
Description: The human colonic carcinoma cell line Caco-2 was obtained from the American Type Culture Collection (ATCC HTB 37). Differentiation of the cells to induce DPP-IV expression was accomplished as described by Reisher, et al. in an article entitled "Increased expression of intestinal cell line Caco-2" in Proc. Natl. Acad. Sci., Vol. 90, pgs. […] Cell extract is prepared from cells solubilized in 10mM Tris HCI, 0.15 M NaCl, 0.04 t.i.u.aprotinin, 0.5% nonidet-P40, pH 8.0, which is centrifuged at 35,000 g for 30 min. at 4 °C. to remove cell debris. The assay is conducted by adding 20 µg solubilized Caco-2 protein, diluted to a final volume of 125 µl in assay buffer (25 mM Tris HCI pH 7.4, 140mM NaCl, 10 mM KCI, 1% bovine serum albumin) to microtiter plate wells. After a 60 min. incubation at room temperature, the reaction is initiated by adding 25 µl of 1 mM substrate (H-Alanine-Proline-pNA; pNA is p-nitroaniline). […] A standard curve of free p-nitroaniline is generated using 0-500 µM solutions of free pNA in assay buffer. The curve generated is linear and is used for interpolation of substrate consumption (catalytic activity in nmoles substrate cleaved /min).
The potency of the test compounds as DPP-IV inhibitors, expressed as IC50, is calculated from 8-point, dose-response curves using a 4-parameter logistic function.

human plasma DPP-IV = molecular target: T2, human plasma DPP-IV (Homo sapiens, UniProt P27487); test: DPP-IV activity in human plasma (modified Kubota assay); type: biochemical; conditions: substrate H-Glycine-Proline-AMC, 8-point dose-response curves
T2 construct: from tissue; host or cells: human plasma
Description: (§1) Briefly, 5 µl of plasma are added to 96-well flat-bottom micortiter plates (Falcon), followed by the addition of 5 µl of 80 mM MgCl2 in incubation buffer (25 mMHEPES, 140 mM NaCl, 1% RIA-grade BSA, pH 7.8). After a 60 min. incubation at room temperature, the reaction is initiated by the addition of 10 µl of incubation buffer containing 0.1 mM substrate (H-Glycine-Proline-AMC; AMC is 7-amino-4-methylcoumarin). The plates are covered with aluminum foil (or kept in the dark) and incubated at room temperature for 20 min. […] A fluorescence-concentration curve of free AMC is generated using 0-50 µM solutions of AMC in assay buffer. The curve generated is linear and is used for interpolation of substrate consumption (catalytic activity in nmoles substrate cleaved/min). As with the previous assay, the potency of the test compounds as DPP-IV inhibitors, expressed as IC50, is calculated from 8-point, dose-response curves using a 4 parameter logistic function.

rat plasma DPP-IV = molecular target: T3, rat plasma DPP-IV (Rattus norvegicus, UniProt P14740); test: DPP-IV activity in rat plasma (modified Kubota assay); type: biochemical; conditions: substrate H-Glycine-Proline-AMC, 8-point dose-response curves
T3 construct: from tissue; host or cells: rat plasma
Description: as §1

plasma DPP-IV = molecular target: T4, plasma DPP-IV (Rattus norvegicus, UniProt P14740); test: Plasma DPP-IV activity after oral dosing in insulin resistant rats (oral glucose challenge study); type: in vivo, Male Sprague-Dawley rats; conditions: 10 µmol/kg orally, ten minutes prior to glucose (1 g/kg p.o.), n=7-8, read-out: inhibition of plasma DPP-IV activity during the study
T4 construct: from tissue; host or cells: plasma of male Sprague-Dawley rats dosed orally (in vivo / ex vivo read-out)
Text: (§2) More specifically, for example, the compounds of formula 1, and their corresponding pharmaceutically acceptable acid addition salts, improve early insulin response to an oral glucose challenge and, therefore, are useful in treating non-insulin-dependent diabetes mellitus. The ability of the compounds of formula I, and their corresponding pharmaceutically acceptable acid addition salts, to improve early insulin response to an oral glucose challenge may be measured in insulin resistant rats according to the following method:
(§3) Male Sprague-Dawley rats that had been fed a high fat diet (saturated fat = 57% calories) for 2-3 weeks were fasted for approximately 2 hours on the day of testing, divided into groups of 7-10, and dosed orally with 10 µmol/kg of test compound in carboxymethylcellulose. […] Blood samples, obtained at various time-points from chronic jugular vein catheters, were analyzed for plasma glucose concentration. Data are expressed as % decrease of the area under the plasma glucose curve compared to vehicle-treated control animals.

[1] = Oral glucose challenge in insulin resistant high fat fed rats: plasma glucose excursion; type: in vivo, Male Sprague-Dawley rats; conditions: 10 µmol/kg orally; glucose 1 g/kg p.o.; % decrease of area under the plasma glucose curve compared to vehicle-treated control animals
Text: as §2, §3

T2 sequence (P27487 39-766 limits assumed): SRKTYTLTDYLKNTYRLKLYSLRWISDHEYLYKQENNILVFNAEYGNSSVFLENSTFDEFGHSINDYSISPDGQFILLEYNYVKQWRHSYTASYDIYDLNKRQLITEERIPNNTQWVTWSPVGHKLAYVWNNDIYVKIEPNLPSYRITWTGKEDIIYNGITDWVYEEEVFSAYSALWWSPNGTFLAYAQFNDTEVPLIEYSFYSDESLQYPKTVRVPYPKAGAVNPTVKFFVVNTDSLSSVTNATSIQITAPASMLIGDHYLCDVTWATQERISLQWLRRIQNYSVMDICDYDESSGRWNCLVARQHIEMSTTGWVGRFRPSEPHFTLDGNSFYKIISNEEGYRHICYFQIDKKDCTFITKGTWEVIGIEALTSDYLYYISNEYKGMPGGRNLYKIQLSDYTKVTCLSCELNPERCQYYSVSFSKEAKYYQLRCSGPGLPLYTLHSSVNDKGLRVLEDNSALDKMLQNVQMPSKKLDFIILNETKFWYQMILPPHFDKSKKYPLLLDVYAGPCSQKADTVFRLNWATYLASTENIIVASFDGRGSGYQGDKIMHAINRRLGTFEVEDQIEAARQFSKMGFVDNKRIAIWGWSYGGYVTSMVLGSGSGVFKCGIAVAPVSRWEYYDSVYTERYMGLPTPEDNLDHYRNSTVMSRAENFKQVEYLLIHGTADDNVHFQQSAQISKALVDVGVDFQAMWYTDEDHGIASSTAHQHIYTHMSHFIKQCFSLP
T1 sequence (P27487 whole entry): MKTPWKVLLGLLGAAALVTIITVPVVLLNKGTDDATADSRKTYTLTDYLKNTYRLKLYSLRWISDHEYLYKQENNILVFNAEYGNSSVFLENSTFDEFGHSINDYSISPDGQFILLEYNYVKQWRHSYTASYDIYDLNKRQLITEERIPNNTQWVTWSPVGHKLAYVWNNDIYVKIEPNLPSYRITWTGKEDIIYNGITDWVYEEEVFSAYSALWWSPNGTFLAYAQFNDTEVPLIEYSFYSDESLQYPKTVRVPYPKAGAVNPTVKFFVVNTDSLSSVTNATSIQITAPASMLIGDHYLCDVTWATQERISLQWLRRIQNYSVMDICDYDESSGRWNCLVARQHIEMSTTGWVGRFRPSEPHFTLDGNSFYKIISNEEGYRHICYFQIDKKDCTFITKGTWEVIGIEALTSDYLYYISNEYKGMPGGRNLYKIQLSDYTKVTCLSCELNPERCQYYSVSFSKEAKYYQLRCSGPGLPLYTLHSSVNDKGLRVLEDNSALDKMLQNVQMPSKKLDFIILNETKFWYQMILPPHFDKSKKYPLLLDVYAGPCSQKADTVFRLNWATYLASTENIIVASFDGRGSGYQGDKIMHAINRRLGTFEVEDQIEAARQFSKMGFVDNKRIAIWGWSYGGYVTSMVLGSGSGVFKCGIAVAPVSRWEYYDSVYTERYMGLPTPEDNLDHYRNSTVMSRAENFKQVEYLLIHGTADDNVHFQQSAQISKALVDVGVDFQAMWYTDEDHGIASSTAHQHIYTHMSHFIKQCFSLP
T3 sequence (P14740 37-767 limits assumed): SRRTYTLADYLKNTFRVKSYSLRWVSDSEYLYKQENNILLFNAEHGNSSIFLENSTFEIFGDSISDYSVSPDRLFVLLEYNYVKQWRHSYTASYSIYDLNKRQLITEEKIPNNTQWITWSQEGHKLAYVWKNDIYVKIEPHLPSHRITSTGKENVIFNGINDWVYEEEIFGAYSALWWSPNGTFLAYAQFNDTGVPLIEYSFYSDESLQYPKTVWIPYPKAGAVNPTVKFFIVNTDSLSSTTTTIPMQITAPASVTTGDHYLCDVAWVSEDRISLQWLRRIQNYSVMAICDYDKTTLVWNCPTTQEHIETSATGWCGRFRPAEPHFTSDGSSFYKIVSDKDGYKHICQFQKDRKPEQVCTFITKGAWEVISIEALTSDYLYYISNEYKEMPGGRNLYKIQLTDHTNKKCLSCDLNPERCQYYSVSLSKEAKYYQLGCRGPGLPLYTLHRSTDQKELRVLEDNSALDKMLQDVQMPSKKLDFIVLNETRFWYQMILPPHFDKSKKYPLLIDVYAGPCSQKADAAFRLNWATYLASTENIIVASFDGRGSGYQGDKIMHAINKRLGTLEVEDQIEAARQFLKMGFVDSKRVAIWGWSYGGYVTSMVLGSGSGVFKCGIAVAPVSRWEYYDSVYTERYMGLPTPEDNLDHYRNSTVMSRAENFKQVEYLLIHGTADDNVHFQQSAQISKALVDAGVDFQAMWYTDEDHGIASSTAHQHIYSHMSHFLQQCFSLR
T4 sequence (P14740 37-767 limits assumed): as above

Compound	IC50 (DPP-IV) [nM]	IC50 (human plasma DPP-IV) [nM]	IC50 (rat plasma DPP-IV) [nM]	inhibition at 10 µmol/kg (plasma DPP-IV) [%]	Decrease of plasma glucose excursion at 10 µmovkg (p=0.01) [1] [%]
CC(C)(CNc1ccc(Cl)cn1)NCC(=O)N1CCC[C@H]1C#N [Ex. 1, 1-[[[2-[(5-Chloro-2-pyridinyl)amino]-1,1-dimethylethyl]amino]acetyl]-2-cyano-(S)-pyrrolidine, monohydrochloride]	2	30	6	–	–
N#C[C@@H]1CCCN1C(=O)CNC1CCC(Oc2ccc(C(F)(F)F)cc2)CC1 (stereo partly drawn) [Ex. 2EE, 1-[[[4-[4-(trifluoromethyl)phenoxy]cyclohexyl]amino]acetyl]-2-cyano-(S)-pyrrolidine, monohydrochloride]	23	150	46	–	–
N#C[C@@H]1CCCN1C(=O)CNC1CCC(NS(=O)(=O)c2ccccc2)CC1 (stereo partly drawn) [Ex. 2M, 1-[[[4-[(phenylsulfonyl)amino]cyclohexyl]amino]acetyl]-2-cyano-(S)-pyrrolidine, monohydrochloride]	34	10	6	–	–
N#C[C@@H]1CCCN1C(=O)CNC1CCC(NC(=O)c2ccccc2)CC1 (stereo partly drawn) [Ex. 2N, 1-[[[4-(benzoylamino)cyclohexyl]amino]acetyl]-2-cyano-(S)-pyrrolidine]	5	10	5	80	39
N#C[C@@H]1CCCN1C(=O)CNC1CCC(Nc2ccnc(Cl)n2)CC1 (stereo partly drawn) [Ex. 2S, 1-[[[4-[(2-chloro-4-pyrimidinyl)amino]cyclohexyl]amino]acetyl]-2-cyano-(S)-pyrrolidine, dihydrochloride]	3	4	2	–	–
CC(C)(C)C(=O)NC1CCC(NCC(=O)N2CCC[C@H]2C#N)CC1 (stereo partly drawn) [Ex. 2U, 1-[[[4-[(2,2-dimethyl-1-oxopropyl)amino]cyclohexyl]amino]acetyl]-2-cyano-(S)-pyrrolidine, monohydrochloride]	39	27	14	–	–
N#Cc1ccc(NC2CCC(NCC(=O)N3CCC[C@H]3C#N)CC2)cc1 (stereo partly drawn) [Ex. 2W, 1-[[[4-[(4-cyanophenyl)amino]cyclohexyl]amino]acetyl]-2-cyano-(S)-pyrrolidine, dihydrochloride]	13	19	7	–	–
N#C[C@@H]1CCCN1C(=O)CNC1CCC(Nc2nc3cc(Cl)ccc3s2)CC1 (stereo partly drawn) [Ex. 2Y, 1-[[[4-[(5-chloro-2-benzothiazolyl)amino]cyclohexyl]amino]acetyl]-2-cyano-(S)-pyrrolidine, dihydrochloride]	12	124	37	–	–
N#C[C@@H]1CCCN1C(=O)CNC1CCN(S(=O)(=O)c2ccc(Cl)cc2)CC1 [Ex. 3, 1-[[[1-[(4-Chlorophenyl)sulfonyl]-4-piperidinyl]amino]acetyl]-2-cyano-(S)-pyrrolidine, monohydrochloride]	124	204	107	–	–
